Measured values: a melting point compilation (Tetko et al.; mined from patent text by program, amines drawn as free bases though some values may be those of a salt)

melting point [°C]	SMILES
267 to 270	O=c1[nH]c2cc(C(F)(F)F)ccc2c(-c2cc(Cl)ccc2O)c1NS(=O)(=O)C(F)(F)F
90	Cn1nc(-c2cc(CO)c(Cl)cc2F)c(Cl)c1C(F)(F)F
124 to 126	CN(C)c1nc(N)c(-c2cc(Cl)cc(Cl)c2Cl)c(C(F)(F)F)n1
115	COc1cc2c(cc1Nc1ncc(Cl)c(Nc3ccc(N(C)C)cc3OC)n1)CCN(CCN1CCOCC1)CC2
180 to 182	COC(=O)NC(=O)c1c(Br)ccc2c(C(F)(F)F)c(OC)ccc12
93.5	C[Si](C)(C)c1ccc(-c2nccc3ccccc23)cc1
206 to 207	O=c1c2ccc(O)cc2[nH]n1Cc1ccccc1
92 to 93	O=C(CS)N1CCSC1COc1ccccc1O (stereo unspecified)
137 to 138	CCc1ccc(NC(=S)Nc2cc([N+](=O)[O-])ccc2O)cc1
199	COc1cc2c(cc1OC)CN(CCCSc1ccc(NC(=O)c3cccc4c(=O)c5cccc(OC)c5[nH]c34)cc1)CC2
127 to 129	CNC(=O)N1C(=S)C2(CCCCC2)NC12CCCCC2
108 to 117	CN(CC(O)[C@H](Cc1ccccc1)NC(=O)c1ccccc1)C(=O)N1CCC[C@H]1C(=O)O (stereo partly specified)
166	Cc1ccc(N)cc1Nc1ncc(-c2cccnc2)o1
120	Cc1c(OCCCOc2cc(C(C)(C)C)c(O)c(C(C)(C)C)c2C)cc(C(C)(C)C)c(O)c1C(C)(C)C
36 to 39.5	COC(=O)N=C(N)OC
160 to 162	CC(=O)c1ccc(-c2ccc(OCc3ccc4ccccc4n3)cc2)c([N+](=O)[O-])c1
129 to 130	c1cc2cc3ccc(OCCN4CCCCC4)cc3nc2cc1OCCN1CCCCC1
155 to 156	COC(=O)Cc1csc2c(OCc3cc(-c4ccc(Cl)cc4)on3)cccc12
125 to 126	COc1cccc(-c2ccc3ccccc3c2Oc2ccc(C=O)cc2)c1
68 to 71	CCCCC(C)C(O)CCc1cc(O)c(O)cc1Br (stereo unspecified)
129	CNc1cc(Cl)cc(N)c1[N+](=O)[O-]
254 to 256	CN1CCC(c2[nH]c(=O)c3ccccc3c2-c2ccc(Cl)cc2)CC1
120	O=C1CCCN1C(=O)NCCS(=O)c1ccccn1 (stereo unspecified)
148 to 149	COC(=O)c1ccc(Br)c(S(C)(=O)=O)c1

melting point [°C]	SMILES
196 to 198	COc1cc(OC)c(-c2cccs2)cc1/C=C/C(=O)c1ccccc1C(=O)O
73	CCCCNc1cncc(C#N)c1
114	Cc1nc2n(c(=O)c1CCCl)CCCN2Cc1ccccc1
258 to 259	Cc1cc(-n2cncn2)cc2c1NC(=O)CC2
148 to 150	O=C(c1ccc([N+](=O)[O-])cc1)N1CCCCc2ccccc21
67	CCCCCCN(O)CCCCCC
86.7	ClC(Cl)=CCOc1cc(Cl)c(OCc2ccc3ccccc3c2)c(Cl)c1
150 to 152	CCCCCCCCC(=O)Nc1ccn(C2OC(CO)C(O)C2O)c(=O)n1 (stereo unspecified)
148 to 149	CN(C)S(=O)(=O)N1CCN(c2ccnc(CO)n2)CC1
218 to 219	CCOC(=O)c1sc(SC)c2c1CCc1nc(-c3ccccc3)[nH]c1-2
73 to 74	Cc1cc(Oc2cccc(C(F)(F)F)c2)nn1C(=O)Nc1ccc(Cl)cc1
190	COc1ccc(N2C(=O)C(N=[N+]=[N-])C2c2ccc(C(=O)O)cc2)cc1 (stereo unspecified)
109 to 110	CSc1ccc(-c2nn(CC=Cc3ccccc3)c(=O)cc2-c2ccc(Cl)cc2)cc1
175 to 177	CCCCN(Cc1ccc(-c2ccccc2-c2nnn[nH]2)cc1)c1nc(C)ccc1C(=O)O
113 to 115	O=C(C1CC1)N1CC[C@@H](Oc2ccc(F)cc2)[C@H](c2ccccc2)C1 (relative stereo)
235 to 238	CCn1cc(C(=O)O)c(=O)c2ccc(-n3cccc3)cc21
74	COC(=O)C(c1ccccc1)c1ccccn1 (racemic)
163 to 165	CC(=O)SCC(Cc1ccccc1)C(=O)Nc1ccc(Cl)c(C(=O)O)c1 (stereo unspecified)
108 to 110	FC(F)(F)c1ccc(CN2CC3(COc4ccc(-c5ccncc5)cc43)c3ccccc32)o1 (stereo unspecified)
276 to 277	Cc1cccc(CNc2ncnc3nc[nH]c23)c1O
97.5 to 99.4	CS(=O)(=O)NC(=O)C1(CCCCCCCCCCCCC2(C(=O)O)CC2)CC1
145 to 146	CCn1cc(C=O)c(-c2ccc([N+](=O)[O-])o2)n1
174 to 175	CC(=O)SCC(Cc1ccc(C)cc1)C(=O)Nc1cccc(C(=O)O)c1 (stereo unspecified)
160 to 175	COCCCNCc1ccc(-c2cc3ncnc(Nc4ccc5[nH]ccc5c4)c3s2)cc1

melting point [°C]	SMILES
165 to 167	COc1cc(C(=O)C(=O)O)cc([N+](=O)[O-])c1O
180	COc1ccc(Oc2ccc(C(=O)N(C3CCCC3)C3CCCC3)cc2)cc1OC
172 to 173	CC1Nc2ccc(-c3ccc(C#N)s3)cc2C(C)(C)O1 (stereo unspecified)
129 to 130	COC1=CC(=O)C(OC)=C(CCCOCCC2=C(OC)C(=O)C=C(OC)C2=O)C1=O
79 to 85	O=C(O)c1cccc(OC(F)(F)C(F)Cl)c1 (stereo unspecified)
180 to 181	C=C1c2[nH]c3ccc(OC)cc3c2CCN1C=O
183	COc1ccc(C(=O)Nc2ccc3ccc(Oc4ccccc4Br)nc3n2)cc1
201 to 203	Brc1c[nH]c2ccc(Nc3ncnc4cc(-c5ccccc5)sc34)cc12
169 to 171	Cn1c(=O)c(-c2c(Cl)cccc2Cl)cc2cnc(Nc3ccc(CCCC(=O)O)cc3)nc21
132 to 134	CCCC[C@]1(CC)CS(=O)(=O)c2cc(OC)c(Br)cc2[C@@H](c2ccccc2)N1
> 250	c1csc(-c2ccnc(-c3cc(-c4cccs4)ccn3)c2)c1
140 to 142	Cc1cc(C2C(=O)Oc3c2cc(C(C)(C)C)cc3C(C)(C)C)cc(C)c1OC(=O)C(C)(C)C (stereo unspecified)
285 to 287	Cc1cccc2c1C1(CCC(=O)NC1=O)CCC2=O (stereo unspecified)
143 to 145	NN1CCC2(CC1)OC(c1ccccc1)c1ccccc12 (stereo unspecified)
94 to 95	CC(C)CC(=O)N[C@@H](Cc1ccccc1)C(=O)CSCc1ccco1
111 to 115	COc1ccccc1NC(=O)Nc1nc(N2CCCCC2)nc(N(CCC(=O)O)Cc2ccc(Cl)c(Cl)c2)n1
51 to 52	CCc1nc(Cl)c([N+](=O)[O-])c(NC(C)C)n1
96.5 to 98	CN(C)/C=C/C(=O)c1ccc(C(F)(F)F)cc1
175 to 177	Cc1cc(NS(=O)(=O)c2ccccc2F)cc(C)c1S(=O)(=O)C[N+](=O)[O-]
75 to 76	O=C(C(=O)c1ccc(Oc2cccc(Br)c2)cc1)c1ccccc1
196 to 197	CC1(C)OC(=O)Nc2ccc(I)cc21
167	Cc1cc(C2=NN(c3nccs3)[C@H](C)Cc3cc4c(cc32)OCO4)cc(C)c1[N+](=O)[O-]
168 to 170	CCOC(=O)C1=C(C2CC2)Nc2n[nH]cc2C1c1ccccc1Br (stereo unspecified)
69 to 71	CC(=O)c1cccc(-n2ccnc2)c1

melting point [°C]	SMILES
102 to 103	CC(C)N1C(=O)c2ccccc2Oc2ccccc21
173 to 175	COc1cccc(-c2cnc3[nH]cc(C(=O)C4(C)CCCCC4)c3n2)c1
239 to 242	COc1cc(C)nc2nc(S(=O)(=O)Nc3c(Cl)ccc(C)c3Cl)nn12
80 to 90	Cc1noc(NS(=O)(=O)c2ccccc2-c2ccc(-c3ncco3)cc2CN(CC(F)(F)F)C(C)C)c1C
85 to 87	CN(c1ccccc1)c1nc(N(C)c2ccccc2)c2ccsc2n1
104 to 106	OC(CCl)COc1cccc2sncc12 (stereo unspecified)
179 to 180	CSc1ccc(-c2coc3ccc(-c4nnc(C)o4)cc23)cc1F
145 to 148	CCc1nn(C(C)C)c2cc(C(=O)Nc3c(Cl)cncc3Cl)ccc12
236 to 238	O=C1COc2cc(Sc3ccc(O)c(O)c3)ccc2N1
104 to 106	CNC(=O)c1cccc(-c2cccc3cc(Cc4cccc(C(F)(F)F)c4)sc23)c1
296	CC1SC(=O)NN=C1c1ccc2c(c1)C(=Cc1ccccn1)C(=O)N2 (stereo unspecified)
75 to 78	COC(=O)c1ccc(CN2CCN(C(=O)c3cc(C(F)(F)F)cc(C(F)(F)F)c3)[C@H](Cc3c[nH]c4ccccc34)C2)cc1
230 to 233	COc1ccc2c(c1)S(=O)(=O)C(C(=O)Nc1ccc(Cl)c(Cl)c1)C(=O)N2C (stereo unspecified)
118 to 120	CC[C@H](COCCCc1ccccc1)n1cnc2c(N)nc3ccccc3c21
120 to 121	CCCCCCCCCCCCCCCCCCOc1cn(CCC)c(CO)cc1=O
164 to 165	CCCOc1ccc(NC2=C(C(=O)OCC)CCC2)cc1C1=NC(=O)C2=NN=NC2=N1
146 to 148	COCCCNc1cc(C(Sc2ccc(Cl)cc2)c2cc(F)ccc2F)c(Cl)cn1 (stereo unspecified)
234 to 238	Brc1ccc(N2CCN(Cc3c[nH]c4ncccc34)CC2)cc1
83 to 85	CCC1(C)C(=O)N=C(SCc2ccccc2N(C)C)N1C(C)=O (stereo unspecified)
195 to 197	Cc1cnc2c(Cl)cnn2c1-c1cccc(C(F)(F)F)c1
204 to 207	O=C(N[C@H]1CCN(C(=O)c2cc(C(F)(F)F)cc(C(F)(F)F)c2)[C@H](Cc2ccc(Cl)cc2)C1)c1ccnc2ccccc12
46 to 47	C/C(=C\c1ccc(OCCN(C)C)cc1)c1ccc2c(c1)SCC(C)(C)CS2
135 to 136	O=CCCCCC(c1cc(F)ccc1F)S(=O)(=O)c1ccc(Cl)cc1 (stereo unspecified)

SMILES	melting point [°C]
CCOC(=O)c1ncn2c1CN=C(c1ccccc1Cl)c1cc(Cl)ccc1-2	215 to 220
C[C@]12CC/C(=C\F)C=C1CC[C@@H]1[C@@H]2CC[C@]2(C)C(=O)CC[C@@H]12	101 to 102
CCOP(=S)(OCC)N1C(=O)c2ccccc2C1=O	81 to 83
Oc1nc(Cl)c(Cl)cc1Cl	168 to 170
Cc1ccc(Cn2cc(C(=O)C(=O)NC3=CC(=O)OC3)c3ccc(F)cc32)cc1	218 to 220
N[C@@H]1CN2CCC1CC2	118 to 121
